The values below come from patent US4079177A, “Clavulanic acid carbamates” (Beecham Group Limited, priority 1975, dated 1978).

One data set has as its system Proteus mirabilis C889. The experiment in a line: Minimum inhibitory concentration (mic), synergistical activity against β-lactamase producing organisms. Format: cell-based. To be noted: substance alone. As for the experimental part: (§1) The minimum inhibitory concentrations (mic) of ampicillin N-methylcarbamoylclavulanic acid, and mixtures of ampicillin and N-methylcarbamoylclavulanic acid were determined against 4 β-lactamase producing organisms.
(§2) MIC's (in μg/ml) of Ampicillin and N-methylcarbamoylclavulanic acid
(§3) combinations thereof against 4 β-lactamase producing organisms.

For a further data set, the system named is Escherichia coli JT4. Described as above. The class given is cell-based. Conditions: substance alone. As for the experimental part: as §1, §2, §3
In data set [1] the test system is Staphylococcus aureus Russell. The data set is described as above. The class given is cell-based. Conditions: substance alone. As for the experimental part: as §1, §2, §3
In another data set the test system is Klebsiella aerogenes E70. Described as above. The class given is cell-based. To be noted: substance alone. As for the experimental part:
as §1, §2, §3

Data set [2] is described as follows: Stability of n.m.r. solution (D2O). Format: physicochemical. The text has this:
n.m.r. (D2 O) 2.88 (3H,s, NCH3) 3.20 (1H,d, J 18Hz, 6β-CH) 3.70 (1H,dd, J 18Hz J' 3Hz 6α-CH) 5.7δ (1H,d, J 3Hz, 5-CH); the other protons were obscured by the water peak.

The MIC is the lowest concentration that inhibits growth of the organism. With `CC1(C)S[C@@H]2[C@H](NC(=O)[C@H](N)c3ccccc3)C(=O)N2[C@H]1C(=O)O` [Ampicillin, ampicillin, reference compound], the MIC in the data set on Proteus mirabilis C889 is above 500 mg/L; in the data set with Escherichia coli JT4 it was above 5000 mg/L; in data set [1] it was 500 mg/L; in the data set on Klebsiella aerogenes E70 it was 250 mg/L.
The corresponding values for `CNC(=O)OC/C=C1\O[C@@H]2CC(=O)N2[C@H]1C(=O)O` [N-methylcarbamoylclavulanic acid] are above 500 mg/L, above 500 mg/L, 250 mg/L and 500 mg/L.
For the compound `CNC(=O)OC/C=C1\O[C@@H]2CC(=O)N2[C@H]1C(=O)O` [Sodium N-methylcarbamoylclavulanate], in data set [2], the “degradation of the n.m.r. solution” value is reported as “signs of rapid degradation”.
